One series relates to miR-335-5p. Description: Relative expression of miR-335-5p by RT-PCR in endothelial cells. It counts as cell-based, human. Here is the method: (§1) Human umbilical vein endothelial cells (HUVECs) were cultured in EBM-2 (Lonza) and THP-1 monocytes (ATCC) were grown in RPM. Human coronary microvascular endothelial cells (HCMECs) (Lonza) were cultured in EBM (Lonza). For experimental treatments, HUVECs and HMVECs (passages 3 to 8) were grown to 70-90% confluence. Simvastatin (Sigma) was activated to its active form as previously described. Atorvastatin (Sigma) was solubilized in DMSO and used at 10 μM concentration. Transient transfection of plasmids was performed with Fugene HD (Promega) according to the manufacturer's instructions. For small interfering RNA (Invitrogen) and miR-335-5p mimic (Dharmacon) transfections, each oligonucleotide formulation and respective controls (control siRNA: 12935112 (Invitrogen), miRNA mimic control: 0010000105 (Dharmacon), 50 nM) were complexed with Lipofectamine RNAiMAX (Invitrogen) according to the manufacturer's instructions.
(§2) Total RNA was extracted with the miRNeasy Mini kit (Qiagen). […] RT-PCR was performed with TaqMan probes for genes and miRNAs (ThermoFisher), or SYBR green assays for genes (Bio-Rad). All miRNA data were normalized to the internal control small RNAs U6 for human samples. For the mRNA samples, ribosomal 18S was used as an internal control. Individual RT-PCRs were performed on a […] (Bio-Rad) according to the manufacturer's instructions.

For a further series, the system named is MEST. The series is described as follows: Relative mRNA expression of MEST by RT-PCR in endothelial cells. Format: cell-based, human. Here is the method:
as §1, §2

A further series has as its system CHFR. The series is described as follows: Relative mRNA and protein expression of CHFR (quantitative PCR, western blot). In general terms: Immunoblotting shows a protein as a band on a membrane.
Another series deals with miR335. The series is described as follows: miR335 inhibitor given to mice on 60% high fat diet. Format: in vivo. To be noted: 60% HFD, 5 mg/kg IP, vs control inhibitor. The procedure: FIG. 14 is a schematic outlining time course of an experiment comparing animals administered miR335 inhibitors to control, on a high fat diet. The mice were injected 5 mg/kg of miR335 inhibitor or its control twice a week for 4 weeks. Nonproprietary in vivo grade miRNA inhibitor purchased from Qiagen/Exiqon. Sequence: […] (SEQ ID NO:3; 100% complementary to […]).
The mice are subject to 6 weeks of 60% HFD. 5 mg/kg of miR335 inhibitor and its control was given to mice by IP injection. 2 weeks after, HFD was started.
The mir335−/− mice and Apoe−/− mice have been previously described. All animals were maintained on a C57BL/6 background. For mice fed a high-fat diet, mice were administered a 60% fat diet (TD-06414, Envigo) or 40% fat diet with 1.25% added cholesterol (DI2108C, Research Diet) for designated times before tissue and serum were collected.
Frozen 10-μm cryosections from the liver were washed with distilled water for 10 min. After the washing, sections were put into Eosin solution for 2 min. After rinsing with distilled water, sections were put into Hematoxylin solution for 5 min. After washing with distilled water for 15 min, the slides were mounted with DPX mountant (Sigma). Sections were imaged using bright-field microscopy.
Plasma was assessed for alanine aminotransferase (ALT) (Pointe Scientific) following the manufacturer's instructions. Briefly, 20 μl of each plasma sample was added in the 200 μl of the reagent and incubated at 37° C. After 1 min incubation, samples were put on the plate and the plate was read at 340 nm with a microplate reader (BioTek Synergy 2). The ALT values were calculated according to the manufacturer's instructions.

On to `CC(C)c1c(C(=O)Nc2ccccc2)c(-c2ccccc2)c(-c2ccc(F)cc2)n1CC[C@@H](O)C[C@@H](O)CC(=O)O` [atorvastatin], for which the miR-335 expression result with miR-335-5p (HCMECs) and in the series on miR-335-5p (HUVECs) was “significant decrease” in each case. Besides, the MEST expression entry with MEST (HCMECs) and with MEST (HUVECs) was “significantly downregulated” throughout. Also, the “CHFR mRNA and protein expression” value in the series with CHFR (HCMECs) and with CHFR (HUVECs) was “significantly upregulated” each time.

With “miR335 inhibitor: Nonproprietary in vivo grade miRNA inhibitor purchased from Qiagen/Exiqon; sequence ACATTTTTCGTTATTGCTCTTGA (SEQ ID NO:3), complementary to miR-335-5p (in vivo grade miRNA inhibitor from Exiqon, chemistry not given here, further chemistry not given here)”, in the series with miR335, the “elevation in serum ALT associated with high fat diet” value was “attenuated”, the “fat accumulation in the liver” value is “attenuated”, the liver histology result is listed as “preserved” and the liver weight result was “decreased”. In the series with miR335, the “weight gain associated with a high fat diet” value was “suppressed”.

For the origin of these results see US20220008452A1, “COMPOSITIONS AND METHODS FOR TREATING OR PREVENTING NASH, NAFLD, DIABETES, ATHEROSCLEROSIS, AND/OR OBESITY” (YALE UNIVERSITY, priority 2018, published 2022).
